Assay results reported in patent publication US5616615A, “Enaminone esters” (priority 1995, dated 1997).
Like-named read-outs stand apart in the source and are kept apart here.

How the values were obtained:
[1] = test system: bicuculline; experiment: Phase V quantification against bicuculline; format: in vivo; conditions: dose not given
Protocol: (§1) Both 12 and 27 were evaluated in Phase V of the ADD Program evaluation scheme. Phase V provides quantification against bicuculline, picrotoxin, pentylenetetrazol, and strychnine. This screen provides information on the mechanism of action of the anticonvulsant activity. Bicuculline, picrotoxin, and strychnine correspond to GABA inhibitory function, chloride channel inhibition and inhibition by glycine respectively.

[2] = test system: Maximal electroshock seizures; experiment: Phase VI oral MES test, rats; format: in vivo; conditions: oral; for responders at 6 mg/kg / responders at 10 mg/kg: Rattus norvegicus, read-out: MES, animals protected/tested (converted)
Description: (§2) Maximal electroshock seizures are elicited with a 60-cycle alternating current of 50 mA intensity (5-7 times that necessary to elicit minimal electroshock seizures) delivered via corneal electrodes for 0.2 seconds. A drop of 0.9% saline is instilled in the eye prior to application of the electrodes in order to […].
(§3) This oral screen is designated as phase VI.

[3] = test system: Corneal Kindled rats; experiment: Corneal kindling; format: in vivo; conditions: for Ave. seizure score: ranking 0-5; for ED50: Rattus norvegicus
Protocol: Corneal kindling studies were performed in our laboratories on 12 and 27 and the results are shown in Tables XI and XII and FIGS. 1A and 1B. Comparative data for the commercial products are included. Seizures evoked in electroshock-kindled rats provide a suitable model consistent with complex partial seizures evolving into generalized motor seizures in humans.
^a Rats kindled to Stage 5. Endpoint was reduction from Stage 5 to […]

[4] = test system: adenosine uptake; experiment: adenosine uptake assay
[5] = test system: bicuculline, picrotoxin, pentylenetetrazol, and strychnine; conditions: in vivo
Protocol: as §1

[6] = test system: Amygdala Kindled Seizures; experiment: Suppression of amygdala kindled seizures; format: in vivo
Protocol: Compounds 12 and 27 were evaluated in our laboratory for suppression of amygdala kindled seizures.

[7] = test system: GABA receptor; experiment: GABA receptor binding test
[8] = test system: benzodiazepine receptor; experiment: benzodiazepine receptor binding evaluation
[9] = in vivo; conditions: rat, po
Description: as §3

[10] = in vivo; conditions: mouse, in vivo, ip
[11] = test system: Maximal electroshock seizures; experiment: MES maximal electroshock seizure test, mice ip; format: in vivo; set-up: TPE (time of peak effect), activity: unit not given here; conditions: ip; for responders at 100 mg/kg: read-out: MES, animals protected/tested (converted); for responders at 300 mg/kg: read-out: MES, animals protected/tested
Protocol: Three tests were performed:
1. MES--Electroshock Seizure Test
as §2

[12] = test system: Subcutaneous Pentylenetetrazol seizure; experiment: sc Met subcutaneous pentylenetetrazol (Metrazol) seizure test, mice; format: in vivo; conditions: Mus musculus, sc, read-out: scMet, animals protected/tested (converted)
[13] = test system: picrotoxin; experiment: Phase V quantification against picrotoxin; format: in vivo; conditions: dose not given
Protocol: as §1

[14] = test system: pentylenetetrazol; experiment: Phase V quantification against pentylenetetrazol; format: in vivo; conditions: dose not given
Protocol: as §1

[15] = Kinetic hydrolysis; format: physicochemical; conditions: for average absorbance value: over incubation periods
Protocol: This solution was 4.0×10^-5 M. Phosphate buffer, pH 7.4 and water were used in this study. All experiments were performed in triplicate. A volume of the stock ethanol solution of 1 (0.2 mL), was diluted with the appropriate solvent to make 1 mL of solution. Each mixture was sealed in a Teflon capped reaction vial and incubated at 37° C. for the same time periods as indicated in the ip rat toxicity study (Tables X and X-A). After each time period, the vials were removed from the incubator and quenched at -80° C. until ready for analysis. Initial scan (t=O h) indicated a λ max at 311 nm for 27. […] After all samples were incubated, the UV spectra was taken from 190-500 nm using the respective solvent as a blank. The results were plotted in terms of absorbance v, time of incubation and the absorbance values.

[16] = test system: seizures; experiment: Anticonvulsant evaluation (ASP phase I / overall); format: in vivo, mice
Procedure, shortened: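 Male Carworth Farms #1 mice; maximal electroshock seizures elicited by 60-cycle AC, 50 mA, 0.2 s via corneal electrodes after a drop of 0.9% saline in the eye. Animals observed for 30 minutes.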

[17] = Neurotoxicity, rats ip; conditions: 100 mg/kg
Protocol: The rotorod test is used to elevate neurotoxicity. The animal is placed on a 1 inch diameter knurled plastic rod rotating at 6 rpm. […] Neurologic toxicity is defined as the failure of the animal to remain on the rod for 1 minute and the results are expressed as the number of animals protected/the number of animals tested.
The toxicity evaluation for the commercial agents as previously indicated was based on the onset of ataxia.

[18] = test system: strychnine; experiment: Phase V quantification against strychnine; format: in vivo; conditions: dose not given
Protocol: as §1

COC(=O)C1C(=O)C=C(Nc2ccc(Cl)cc2)CC1C (centres unmarked) [Compound 27]
protection against bicuculline [1]: uniformly inactive
ED50 ([2]; Phase VI, rat): 5.79 mg/kg
responders at 6 mg/kg ([2]; 0.5 h, 0.50 h): 75%
responders at 10 mg/kg ([2]; 0.5 h, 0.50 h): 100%
responders at 6 mg/kg ([2]; 1.00 h): 50%
responders at 6 mg/kg ([2]; 2.00 h): 25%
responders at 10 mg/kg ([2]; 0.25 h): 75%
responders at 10 mg/kg ([2]; 1.00 h): 100%
responders at 10 mg/kg ([2]; 2.00 h): 100%
responders at 10 mg/kg ([2]; 4.00 h): 75%
% Reduction ([3]; 20 mg/kg): 40%
Ave. seizure score ([3]; 20 mg/kg): 3.0
% Reduction ([3]; 30 mg/kg): 40%
Ave. seizure score ([3]; 30 mg/kg): 3.0
% Reduction ([3]; 40 mg/kg): 49%
Ave. seizure score ([3]; 40 mg/kg): 2.6
% Reduction ([3]; 50 mg/kg): 87%
Ave. seizure score ([3]; 50 mg/kg): 1.7
ED50 ([3]; po, 0.5 h, read-out: ED50 (reduction from Stage 5 to Stage 4)): 31.2 mg/kg
ED50 ([3]; read-out: ED50, corneal kindling): 31.2 mg/kg
adenosine uptake [4]: inactive
threshold to chemostimulants [5]: did not lower the threshold to these chemostimulants
Afterdischarge Amygdala: Duration ([6]; 350 mg/kg): 79.8 s
Afterdischarge Cortex: Duration ([6]; 350 mg/kg): 79.6 s
Afterdischarge Cortex: Latency ([6]; 350 mg/kg): 2.7 s
Behavioral Seizure: Duration ([6]; 350 mg/kg): 82.3 s
Behavioral Seizure: Latency ([6]; 350 mg/kg): 2.1 s
Forelimb Clonus: Duration ([6]; 350 mg/kg): 45.3 s
Forelimb Clonus: Latency ([6]; 350 mg/kg): 9.2 s
Seizure Stage ([6]; 350 mg/kg): 5.0
suppression of amygdala kindled seizures ([6]; in vivo): no significant activity
GABA receptor binding [7]: inactive
benzodiazepine receptor binding [8]: inactive
TD50 [9]: > 380 mg/kg
selectivity ratio [9]: 65.6
Tox, animals toxic/tested ([9]; 6 mg/kg): 0/4
Tox, animals toxic/tested ([9]; 10 mg/kg): 0/4
TD50 [10]: 255 mg/kg
TPE (time of peak effect), toxicity [10]: 2
selectivity ratio [10]: 9.72
responders at 100 mg/kg ([11]; Mus musculus, 0.5 h, 30 min): 100%
responders at 300 mg/kg ([11]; Mus musculus, 0.5 h, 30 min): 100%
responders at 100 mg/kg ([11]; Mus musculus, 4 h, 4 h): 0%
responders at 300 mg/kg ([11]; Mus musculus, 4 h, 4 h): 100%
ED50 ([11]; Mus musculus, Phase II, time of peak effect): 26.2 mg/kg
TPE (time of peak effect), activity ([11]; Phase II): 0.5
responders at 100 mg/kg ([12]; 0.5 h, 30 min): 0%
responders at 300 mg/kg ([12]; 0.5 h, 30 min): 0%
responders at 100 mg/kg ([12]; 4 h, 4 h): 0%
responders at 300 mg/kg ([12]; 4 h, 4 h): 0%
protection against picrotoxin [13]: uniformly inactive
protection against pentylenetetrazol [14]: uniformly inactive
average absorbance value ([15]; aqueous media, 37° C.): 0.929 (range 0.789-1.069)
average absorbance value ([15]; pH 7.4 buffer, 37° C.): 1.112 (range 0.983-1.240)
change of wavelength (λ max) on incubation ([15]; water and pH 7.4 buffer, 37° C.): the wavelength did not change from 311 nm
significance of absorbance differences ([15]; water vs pH 7.4 buffer): not significant
activity compared with benzylamine counterpart ([16]; 27 vs 16, 28 vs 17, 29 vs 20): activity is enhanced in all cases
minimal effective dose ([16]; Mus musculus, ip, Phase I, read-out: ASP Classification): < 100 mg/kg
anticonvulsant activity ([16]; mouse, in vivo): anticonvulsant activity was observed
animals displaying neurotoxicity/tested ([17]; 0.25 h (Table X-A)): 0/8
animals displaying neurotoxicity/tested ([17]; 0.50 h (Table X-A)): 3/8
animals displaying neurotoxicity/tested ([17]; 1.00 h (Table X-A)): 6/8
animals displaying neurotoxicity/tested ([17]; 2.00 h (Table X-A)): 7/8
animals displaying neurotoxicity/tested ([17]; 4.00 h (Table X-A)): 2/8
animals displaying neurotoxicity/tested ([17]; 6.00 h (Table X-A)): 1/8
animals displaying neurotoxicity/tested ([17]; 8.00 h (Table X-A)): 0/8
animals displaying neurotoxicity/tested ([17]; 24.00 h (Table X-A)): 2/8
protection against strychnine [18]: uniformly inactive
